In ChEMBL document CHEMBL4680155, “One-pot synthesis and molecular docking of some new spiropyranindol-2-one derivatives as immunomodulatory agents and in vitro antimicrobial potential with DNA gyrase inhibitor” (Eur J Med Chem, 2020):
pIC50: −log10 of the molar value. Values after ≈ are worked out from the molar mass of the structure shown. Active and inactive are the calls of the source. The calls are words filed in the database; no cut-off is given here.

Tests used:
[1] = test system: Enterococcus faecalis; assay: Antibacterial activity against Enterococcus faecalis ATCC 29212 assessed as diameter of inhibition zone at 0.5 mg/ml incubated for 24 hrs by agar diffusion method; format: functional; conditions: for zone of inhibition at 500 µg/mL: read-out: DIZ
[2] = test system: Staphylococcus aureus; assay: Antibacterial activity against Staphylococcus aureus ATCC 29213 assessed as diameter of inhibition zone at 0.5 mg/ml incubated for 24 hrs by agar diffusion method; format: functional; conditions: for zone of inhibition at 500 µg/mL: read-out: DIZ
[3] = test system: Escherichia coli; assay: Antibacterial activity against Escherichia coli ATCC 25922 assessed as diameter of inhibition zone at 0.5 mg/ml incubated for 24 hrs by agar diffusion method; format: functional; conditions: for zone of inhibition at 500 µg/mL: read-out: DIZ
[4] = test system: Salmonella typhimurium; assay: Antibacterial activity against Salmonella typhi ATCC 6539 assessed as diameter of inhibition zone at 0.5 mg/ml incubated for 24 hrs by agar diffusion method; format: functional, Salmonella enterica subsp. enterica serovar Typhimurium; conditions: for zone of inhibition at 500 µg/mL: Salmonella enterica, read-out: DIZ
[5] = test system: Candida albicans; assay: Antifungal activity against Candida albicans ATCC 10231 assessed as diameter of inhibition zone at 0.5 mg/ml incubated for 24 hrs by agar diffusion method; format: functional; conditions: read-out: DIZ
[6] = test system: Aspergillus brasiliensis; assay: Antifungal activity against Aspergillus brasiliensis ATCC 16404 assessed as diameter of inhibition zone at 0.5 mg/ml incubated for 72 hrs by agar diffusion method; format: functional; conditions: read-out: DIZ
[7] = test system: Enterococcus faecalis; assay: Antibacterial activity against Enterococcus faecalis ATCC 29212 assessed as reduction in bacterial growth incubated for 1 day by paper disk diffusion method; format: functional
[8] = test system: Staphylococcus aureus; assay: Antibacterial activity against Staphylococcus aureus ATCC 29213 assessed as reduction in bacterial growth incubated for 1 day by paper disk diffusion method; format: functional
[9] = test system: Escherichia coli; assay: Antibacterial activity against Escherichia coli ATCC 25922 assessed as reduction in bacterial growth incubated for 1 day by paper disk diffusion method; format: functional
[10] = test system: Salmonella typhimurium; assay: Antibacterial activity against Salmonella typhi ATCC 6539 assessed as reduction in bacterial growth incubated for 1 day by paper disk diffusion method; format: functional, Salmonella enterica subsp. enterica serovar Typhimurium
[11] = test system: Candida albicans; assay: Antifungal activity against Candida albicans ATCC 10231 assessed as reduction in bacterial growth incubated for 1 day by paper disk diffusion method; format: functional; conditions: ATCC 10231, 24 h
[12] = test system: Aspergillus brasiliensis; assay: Antifungal activity against Aspergillus brasiliensis ATCC 16404 assessed as reduction in bacterial growth incubated for 3 days by paper disk diffusion method; format: functional; conditions: ATCC 16404, 72 h, time 3 day
[13] = test system: Enterococcus faecalis; assay: Bactericidal activity against Enterococcus faecalis ATCC 29212 incubated for 24 hrs followed by transferring to freshly prepared broth medium and measured after 24 hrs by broth microdilution assay; format: functional; conditions: time 48 hrs
[14] = test system: Staphylococcus aureus; assay: Bactericidal activity against Staphylococcus aureus ATCC 29213 incubated for 24 hrs followed by transferring to freshly prepared broth medium and measured after 24 hrs by broth microdilution assay; format: functional; conditions: time 48 hrs
[15] = test system: Escherichia coli; assay: Bactericidal activity against Escherichia coli ATCC 25922 incubated for 24 hrs followed by transferring to freshly prepared broth medium and measured after 24 hrs by broth microdilution assay; format: functional; conditions: time 48 hrs
[16] = test system: Salmonella typhimurium; assay: Bactericidal activity against Salmonella typhi ATCC 6539 incubated for 24 hrs followed by transferring to freshly prepared broth medium and measured after 24 hrs by broth microdilution assay; format: functional, Salmonella enterica subsp. enterica serovar […]; conditions: Salmonella enterica, time 48 hrs
[17] = test system: Candida albicans; assay: Fungicidal activity against Candida albicans ATCC 10231 incubated for 24 hrs followed by transferring to freshly prepared broth medium and measured after 24 hrs by broth microdilution assay; format: functional; conditions: time 48 hrs
[18] = test system: Aspergillus brasiliensis; assay: Fungicidal activity against Aspergillus brasiliensis ATCC 16404 incubated for 72 hrs followed by transferring to freshly prepared broth medium and measured after 24 hrs by broth microdilution assay; format: functional; conditions: time 96 hrs
[19] = test system: Staphylococcus aureus; assay: Antibacterial activity against multidrug resistant Staphylococcus aureus ATCC 43300 assessed as diameter of inhibition zone at 0.5 mg/ml incubated for 24 hrs by agar diffusion method; format: functional; conditions: read-out: DIZ
[20] = test system: Staphylococcus aureus; assay: Antibacterial activity against multidrug resistant Staphylococcus aureus ATCC 33591 assessed as diameter of inhibition zone at 0.5 mg/ml incubated for 24 hrs by agar diffusion method; format: functional; conditions: read-out: DIZ
[21] = test system: Escherichia coli; assay: Antibacterial activity against multidrug resistant Escherichia coli ATCC BAA-196 assessed as diameter of inhibition zone at 0.5 mg/ml incubated for 24 hrs by agar diffusion method; format: functional; conditions: read-out: DIZ
[22] = test system: Pseudomonas aeruginosa; assay: Antibacterial activity against multidrug resistant Pseudomonas aeruginosa ATCC BAA-2111 assessed as diameter of inhibition zone at 0.5 mg/ml incubated for 24 hrs by agar diffusion method; format: functional; conditions: read-out: DIZ
[23] = test system: Staphylococcus aureus; assay: Antibacterial activity against multidrug resistant Staphylococcus aureus ATCC 43300 assessed as reduction in bacterial growth incubated for 1 day by paper disk diffusion method; format: functional; conditions: ATCC 43300, 24 h
[24] = test system: Staphylococcus aureus; assay: Antibacterial activity against multidrug resistant Staphylococcus aureus ATCC 33591 assessed as reduction in bacterial growth incubated for 1 day by paper disk diffusion method; format: functional; conditions: ATCC 33591, 24 h
[25] = test system: Escherichia coli; assay: Antibacterial activity against multidrug resistant Escherichia coli ATCC BAA-196 assessed as reduction in bacterial growth incubated for 1 day by paper disk diffusion method; format: functional; conditions: ATCC BAA-196, 24 h
[26] = test system: Pseudomonas aeruginosa; assay: Antibacterial activity against multidrug resistant Pseudomonas aeruginosa ATCC BAA-2111 assessed as reduction in bacterial growth incubated for 1 day by paper disk diffusion method; format: functional; conditions: ATCC BAA-2111, 24 h
[27] = test system: Staphylococcus aureus; assay: Bactericidal activity against Staphylococcus aureus ATCC 43300 incubated for 24 hrs followed by transferring to freshly prepared broth medium and measured after 24 hrs by broth microdilution assay; format: functional; conditions: time 48 hrs
[28] = test system: Staphylococcus aureus; assay: Bactericidal activity against Staphylococcus aureus ATCC 33591 incubated for 24 hrs followed by transferring to freshly prepared broth medium and measured after 24 hrs by broth microdilution assay; format: functional; conditions: time 48 hrs
[29] = test system: Escherichia coli; assay: Bactericidal activity against Escherichia coli ATCC BAA-196 incubated for 24 hrs followed by transferring to freshly prepared broth medium and measured after 24 hrs by broth microdilution assay; format: functional; conditions: time 48 hrs
[30] = test system: Pseudomonas aeruginosa; assay: Bactericidal activity against Pseudomonas aeruginosa ATCC BAA-2111 incubated for 24 hrs followed by transferring to freshly prepared broth medium and measured after 24 hrs by broth microdilution assay; format: functional; conditions: time 48 hrs
[31] = test system: Neutrophil; assay: Immunomodulatory activity in human neutrophils infected with bacteria assessed as increase in bacterial killing by measuring reduced NBT incubated for 30 mins by NBT dye based spectrophotometry; format: functional; design: concentration or dose not given beside the values; conditions: 0.5 h
[32] = target: DNA gyrase (Staphylococcus aureus, UniProt P0A0K8+P20831); assay: Inhibition of Staphylococcus aureus DNA gyrase using relaxed pBR322 DNA as substrate incubated for 45 mins by agarose gel electrophoresis method; format: protein-complex assay
[33] = Salmonella enterica, ATCC 6539, 24 h
[34] = Salmonella enterica subsp. enterica serovar Typhimurium

DNA gyrase, sequence (P0A0K8 whole entry): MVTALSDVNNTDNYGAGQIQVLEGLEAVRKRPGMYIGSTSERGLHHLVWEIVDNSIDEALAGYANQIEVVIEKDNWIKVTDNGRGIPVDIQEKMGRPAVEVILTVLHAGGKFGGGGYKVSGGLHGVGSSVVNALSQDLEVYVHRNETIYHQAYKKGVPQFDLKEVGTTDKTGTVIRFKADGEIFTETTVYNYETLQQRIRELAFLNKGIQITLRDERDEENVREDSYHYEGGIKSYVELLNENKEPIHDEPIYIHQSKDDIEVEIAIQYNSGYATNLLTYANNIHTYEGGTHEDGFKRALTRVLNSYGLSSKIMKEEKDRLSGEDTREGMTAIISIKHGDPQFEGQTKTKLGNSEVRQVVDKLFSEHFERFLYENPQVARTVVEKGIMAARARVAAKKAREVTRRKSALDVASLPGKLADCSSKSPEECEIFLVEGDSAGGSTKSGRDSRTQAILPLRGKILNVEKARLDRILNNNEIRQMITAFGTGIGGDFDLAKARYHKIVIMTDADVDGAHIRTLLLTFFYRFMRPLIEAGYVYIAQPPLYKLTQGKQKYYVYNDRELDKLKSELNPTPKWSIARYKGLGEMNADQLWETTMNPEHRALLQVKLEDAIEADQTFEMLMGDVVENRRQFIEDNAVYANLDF
DNA gyrase, sequence (P20831 whole entry): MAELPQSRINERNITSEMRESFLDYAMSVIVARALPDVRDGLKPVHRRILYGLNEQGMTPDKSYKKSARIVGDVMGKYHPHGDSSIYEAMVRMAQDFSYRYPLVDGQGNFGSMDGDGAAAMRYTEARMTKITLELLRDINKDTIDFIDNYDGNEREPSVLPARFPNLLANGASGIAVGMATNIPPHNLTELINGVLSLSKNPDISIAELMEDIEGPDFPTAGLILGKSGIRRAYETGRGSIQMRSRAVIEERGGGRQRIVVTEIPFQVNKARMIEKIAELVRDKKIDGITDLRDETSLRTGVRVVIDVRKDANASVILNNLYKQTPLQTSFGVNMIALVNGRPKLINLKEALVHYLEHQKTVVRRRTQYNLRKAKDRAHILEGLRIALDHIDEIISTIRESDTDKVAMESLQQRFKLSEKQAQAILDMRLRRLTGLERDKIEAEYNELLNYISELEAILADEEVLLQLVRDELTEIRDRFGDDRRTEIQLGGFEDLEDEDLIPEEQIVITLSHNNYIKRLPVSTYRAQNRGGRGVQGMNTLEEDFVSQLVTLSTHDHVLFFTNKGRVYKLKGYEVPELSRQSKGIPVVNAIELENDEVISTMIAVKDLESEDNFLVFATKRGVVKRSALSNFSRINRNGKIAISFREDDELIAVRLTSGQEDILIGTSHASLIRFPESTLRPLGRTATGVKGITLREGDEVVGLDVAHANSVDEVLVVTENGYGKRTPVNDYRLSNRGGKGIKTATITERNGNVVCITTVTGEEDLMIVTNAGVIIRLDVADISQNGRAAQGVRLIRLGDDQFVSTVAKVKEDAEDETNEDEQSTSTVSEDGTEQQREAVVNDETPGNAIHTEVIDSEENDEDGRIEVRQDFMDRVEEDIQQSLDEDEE

| SMILES | zone of inhibition at 500 µg/mL [1] [mm] | zone of inhibition at 500 µg/mL [2] [mm] | zone of inhibition at 500 µg/mL [3] [mm] | zone of inhibition at 500 µg/mL [4] [mm] | zone of inhibition at 500 µg/mL [5] [mm] | zone of inhibition at 500 µg/mL [6] [mm] | MIC ([7]; ATCC 29212, 24 h) [µg/mL] | MIC ([8]; ATCC 29213, 24 h) [µg/mL] | MIC ([9]; ATCC 25922, 24 h) [µg/mL] | MIC [10, 33] [µg/mL] | MIC [11] [µg/mL] | MIC [12] [µg/mL] | MBC [13] [µg/mL] | MBC [14] [µg/mL] | MBC [15] [µg/mL] | MBC [16] [µg/mL] | MFC [17] [µg/mL] | MFC [18] [µg/mL] | zone of inhibition at 500 µg/mL [19] [mm] | zone of inhibition at 500 µg/mL [20] [mm] | further results |
| --- | --- | --- | --- | --- | --- | --- | --- | --- | --- | --- | --- | --- | --- | --- | --- | --- | --- | --- | --- | --- | --- |
| CCOC(=O)C1=C(c2ccccc2)OC(N)=C(C#N)C12C(=O)Nc1ccc(S(=O)(=O)N3CCCCC3)cc12 (configuration not stated) | 24 | 21 | 23 | 24 | 22 | 20 | 15.6 (≈ 29.2 µM) | 71.1 (≈ 133 µM) | 15.6 (≈ 29.2 µM) | 15.6 (≈ 29.2 µM) | 12.5 (≈ 23.4 µM) | 62.5 (≈ 117 µM) | 31.2 (≈ 58.4 µM) | 99.5 (≈ 186 µM) | 21.9 (≈ 40.9 µM) | 20.3 (≈ 38 µM) | 25 (≈ 46.8 µM) | 125 (≈ 234 µM) | 24 | 25 | zone of inhibition at 500 µg/mL [21]: 26 mm; zone of inhibition at 500 µg/mL [22]: 24 mm; MIC [23]: 1.95 µg/mL (≈ 3.65 µM); MIC [24]: 1.95 µg/mL (≈ 3.65 µM); MIC [25]: 1.57 µg/mL (≈ 2.94 µM); MIC [26]: 3.9 µg/mL (≈ 7.3 µM); MBC [27]: 2.92 µg/mL (≈ 5.46 µM); MBC [28]: 3.31 µg/mL (≈ 6.19 µM); MBC [29]: 2.35 µg/mL (≈ 4.4 µM); MBC [30]: 6.24 µg/mL (≈ 11.7 µM); Activity [31]: 95.4%; pIC50 [32]: 4.70 |
| C[C@@H]1[C@H](O)[C@@H](C)/C=C/C=C/C=C/C=C/C=C/C=C/C=C/[C@H](O[C@@H]2O[C@H](C)[C@@H](O)[C@H](N)[C@@H]2O)C[C@@H]2O[C@](O)(C[C@@H](O)C[C@@H](O)[C@H](O)CC[C@@H](O)C[C@@H](O)CC(=O)O[C@H]1C)C[C@H](O)[C@H]2C(=O)O [AMPHOTERICIN B] |  |  |  |  | 22 |  |  |  |  |  | 15.6 (≈ 16.9 µM) | 31.2 (≈ 33.8 µM) |  |  |  |  | 34.6 (≈ 37.5 µM) | 65.6 (≈ 71 µM) |  |  | diameter of the inhibition zone (DIZ) [1]: inactive; diameter of the inhibition zone (DIZ) [2]: inactive; diameter of the inhibition zone (DIZ) [3]: inactive; diameter of the inhibition zone (DIZ) [4, 34]: inactive; MIC [7]: inactive; MIC [8]: inactive; MIC [9]: inactive; MIC [10, 34]: inactive |
| N#CC(C#N)=C1C(=O)Nc2ccc(S(=O)(=O)N3CCOCC3)cc21 | 23 | 24 | 25 | 23 | 22 | 19 | 8.88 (≈ 25.8 µM) | 35.5 (≈ 103 µM) | 7.81 (≈ 22.7 µM) | 15.6 (≈ 45.4 µM) | 6.25 (≈ 18.2 µM) | 62.5 (≈ 182 µM) | 11.5 (≈ 33.5 µM) | 46.2 (≈ 134 µM) | 15.6 (≈ 45.4 µM) | 28.1 (≈ 81.6 µM) | 12.5 (≈ 36.3 µM) | 100 (≈ 290 µM) | 24 | 24 | zone of inhibition at 500 µg/mL [21]: 25 mm; zone of inhibition at 500 µg/mL [22]: 23 mm; MIC [23]: 3.9 µg/mL (≈ 11.3 µM); MIC [24]: 4.44 µg/mL (≈ 12.9 µM); MIC [25]: 3.9 µg/mL (≈ 11.3 µM); MIC [26]: 4.44 µg/mL (≈ 12.9 µM); MBC [27]: 5.04 µg/mL (≈ 14.6 µM); MBC [28]: 8.88 µg/mL (≈ 25.8 µM); MBC [29]: 6.24 µg/mL (≈ 18.1 µM); MBC [30]: 7.99 µg/mL (≈ 23.2 µM); Activity [31]: 145.7%; pIC50 [32]: 4.58 |
